Reference: PubChem BioAssay (NCI)
Values joined by “and” are separate entries in the source; they are usually repeats but may differ in a detail not shown here. Equal values may be shown once.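 Each compound was tested at five concentrations against cells in 96-well plates for 48 hours. GI50 marks 50% less growth. The concentration for full growth arrest is given as TGI.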

Legend:
Assay in all cases: DTP human tumour cell line panel, 48 h
K-562 leukemia = system: K-562 leukemia
HOP-62 NSCLC = system: HOP-62 NSCLC
M14 melanoma = system: M14 melanoma
HCT-15 colon = system: HCT-15 colon
SW-620 colon = system: SW-620 colon
SF-539 CNS = system: SF-539 CNS
SF-295 CNS = system: SF-295 CNS
KM20L2 colon = system: KM20L2 colon
RPMI-8226 leukemia = system: RPMI-8226 leukemia
HCC-2998 colon = system: HCC-2998 colon
UACC-62 melanoma = system: UACC-62 melanoma
NCI-H460 lung = system: NCI-H460 lung
SNB-75 CNS = system: SNB-75 CNS
MDA-MB-435 = system: MDA-MB-435
HOP-18 NSCLC = system: HOP-18 NSCLC
OVCAR-3 ovarian = system: OVCAR-3 ovarian
SNB-19 CNS = system: SNB-19 CNS
MCF7 breast = system: MCF7 breast
SN12C renal = system: SN12C renal
EKVX NSCLC = system: EKVX NSCLC
DLD-1 colon = system: DLD-1 colon
NCI/ADR-RES ovarian = system: NCI/ADR-RES ovarian
COLO 205 colon = system: COLO 205 colon
HT29 colon = system: HT29 colon
NCI-H23 lung = system: NCI-H23 lung
ACHN renal = system: ACHN renal
SK-OV-3 ovarian = system: SK-OV-3 ovarian
SK-MEL-5 melanoma = system: SK-MEL-5 melanoma
TK-10 renal = system: TK-10 renal
LOX IMVI melanoma = system: LOX IMVI melanoma
BT-549 breast = system: BT-549 breast
PC-3 prostate = system: PC-3 prostate

With `NCCNc1ccc(NCCN)c2c1C(=O)c1c(O)ccc(O)c1C2=O` the TGI (K-562 leukemia) was 140 nM, the GI50 (HOP-62 NSCLC) was 18.9 nM and the TGI (HOP-62 NSCLC) was 147 nM and 64.2 nM. The GI50 (M14 melanoma) was 32.4 nM, the TGI (M14 melanoma) was 1270 nM and 1320 nM and the GI50 (HCT-15 colon) was 30.3 nM. The TGI (HCT-15 colon) was 391 nM and 1260 nM, the GI50 (SW-620 colon) was 28.8 nM and the TGI (SW-620 colon) was 1320 nM and 1120 nM. For the same molecule, the GI50 (SF-539 CNS) was < 11.2 nM, the TGI (SF-539 CNS) was 932 nM and 261 nM and the GI50 (SF-295 CNS) was < 13.1 nM. The TGI (SF-295 CNS) was 414 nM and 61.8 nM, the GI50 (KM20L2 colon) was 251 nM and the TGI (KM20L2 colon) was 1500 nM and 1530 nM. For the same molecule, the TGI (RPMI-8226 leukemia) was 692 nM, the GI50 (HCC-2998 colon) was 147 nM and the TGI (HCC-2998 colon) was 1240 nM. For the same molecule, the GI50 (UACC-62 melanoma) was 22.8 nM, the TGI (UACC-62 melanoma) was 890 nM and 313 nM and the TGI (NCI-H460 lung) was 159 nM and 178 nM. The GI50 (SNB-75 CNS) was 22.7 nM, the TGI (SNB-75 CNS) was 206 nM and 429 nM and the TGI (MDA-MB-435) was 2370 nM. The GI50 (HOP-18 NSCLC) was 26.3 nM, the TGI (HOP-18 NSCLC) was 3820 nM and 770 nM and the GI50 (OVCAR-3 ovarian) was 385 nM. For the same molecule, the TGI (OVCAR-3 ovarian) was 2180 nM and 1660 nM, the GI50 (SNB-19 CNS) was 14.5 nM and the TGI (SNB-19 CNS) was 1140 nM and 254 nM. For the same molecule, the TGI (MCF7 breast) was 4510 nM and 1270 nM, the TGI (SN12C renal) was 79.9 nM and 77.6 nM and the GI50 (EKVX NSCLC) was 112 nM. For the same molecule, the TGI (EKVX NSCLC) was 1300 nM and 435 nM, the GI50 (DLD-1 colon) was 69 nM and the TGI (DLD-1 colon) was 1050 nM and 974 nM. For the same molecule, the GI50 (NCI/ADR-RES ovarian) was 237 nM, the TGI (NCI/ADR-RES ovarian) was 1390 nM and 2840 nM and the GI50 (COLO 205 colon) was 157 nM. For the same molecule, the TGI (COLO 205 colon) was 2360 nM and 1190 nM, the GI50 (HT29 colon) was 92.2 nM and the TGI (HT29 colon) was 1340 nM and 1230 nM. For the same molecule, the GI50 (NCI-H23 lung) was < 14.4 nM, the TGI (NCI-H23 lung) was 44.2 nM and 83.5 nM and the TGI (ACHN renal) was 117 nM and 59.6 nM. For the same molecule, the GI50 (SK-OV-3 ovarian) was 15.1 nM, the GI50 (SK-MEL-5 melanoma) was 70.9 nM and the TGI (SK-MEL-5 melanoma) was 1470 nM and 1110 nM. The GI50 (TK-10 renal) was 289 nM, the TGI (TK-10 renal) was 3640 nM and 1400 nM and the GI50 (LOX IMVI melanoma) was 31 nM. The TGI (LOX IMVI melanoma) was 252 nM and 214 nM, the TGI (BT-549 breast) was 2180 nM and the TGI (PC-3 prostate) was 1640 nM.
